Laboratory results from patent publication US20130085064A1, “PESTICIDAL MIXTURES CONTAINING ISOXAZOLINE DERIVATIVES AND INSECTICIDE OR NEMATOICIDAL BIOLOGICAL AGENT” (priority 2010, published 2013).
Where “and” joins values, the source holds several entries; their conditions need not be identical. Equal values may be shown once. Read-outs that look alike come from different tables or passages of the source.

Legend:
Type in all cases: in vivo
[1] = system: Heliothis virescens (tobacco budworm); assay: Heliothis virescens eggs in 24-well microtiter plate on artificial diet, larval mortality; conditions: Heliothis virescens, 96 h, read-out: AVERAGE DEAD IN %
From the text: (§1) The action to be expected E for a given active ingredient combination obeys the so-called COLBY formula and can be calculated as follows (COLBY, S.R. “Calculating synergistic and antagonistic responses of herbicide combination”. Weeds, Vol. 15, pages 20-22; 1967):
(§2) ppm=milligrams of active ingredient (=a.i.) per liter of spray mixture X=% action by active ingredient A) using p ppm of active ingredient Y=% action by active ingredient B) using q ppm of active ingredient.
(§3) According to COLBY, the expected (additive) action of active ingredients A)+B) using p+q ppm of active ingredient is
(§4) If the action actually observed (O) is greater than the expected action (E), then the action of the combination is super-additive, i.e. there is a synergistic effect. In mathematical terms the synergism factor SF corresponds to O/E. In the agricultural practice an SF of ≧1.2 indicates significant improvement over the purely complementary addition of activities (expected activity), while an SF of ≦0.9 in the practical application routine signals a loss of activity compared to the expected activity.
Heliothis Virescens (Tobacco Budworm)
Eggs (0-24 h old) are placed in 24-well microtiter plate on artificial diet and treated with test solutions (DMSO) by pipetting. After an incubation period of 4 days, samples are checked for larval mortality.

[2] = system: Heliothis virescens (tobacco budworm); assay: Heliothis virescens ovo-larvicide, feeding/contact, eggs on filter paper in Petri dishes; conditions: for AVERAGE DEAD IN % (EGGS) / AVERAGE DEAD IN % (LARVAE): single compound, 7 days
From the text: as §1, §2, §3, §4
Heliothis Virescens (Tobacco Budworm):
(Ovo-Larvicide, Feeding/Contact)
30-35 fresh eggs (0-24 h old), deposited on filter paper, are placed in Petri dishes on top of a layer of artificial diet and 0.8 ml of diluted test solutions are pipetted onto them. After an incubation period of 7 days, samples are checked for egg and larval mortality. 3 replicates per treatment were evaluated.

[3] = system: Tetranychus urticae (two spotted spider mite); assay: Tetranychus urticae contact/feeding activity on bean plants, adult mortality
From the text: as §1, §2, §3, §4
Tetranychus Urticae (Two Spotted Spider Mite)
(Contact/Feeding Activity)
Bean plants are infested with mite populations of mixed ages. 1 day after infestation, plants are treated in a spray chamber with diluted test solutions. 1 and 8 days later, samples are checked for adult mortality. 2 replicates per treatment were evaluated.

[4] = system: Spodoptera littoralis (Egyptian cotton leaf worm); assay: Spodoptera littoralis larvicide L1, feeding/contact, cotton leaf discs; conditions: single compound
From the text: as §1, §2, §3, §4
Spodoptera Littoralis (Egyptian Cotton Leaf Worm)
(Larvicide L1, Feeding/Contact)
Cotton leaf discs are placed on agar in Petri dishes and sprayed with test solutions in an application chamber. After drying, the leaf discs are infested with 10 L1 larvae. The samples are checked for mortality 5 days after treatment. 3 replicates per treatment were evaluated. (1 PPM=1 mg l^−1)

**Q.** CC1(C)[C@H](C(=O)O[C@H](C#N)c2cccc(Oc3ccccc3)c2)[C@@H]1/C=C(\Cl)C(F)(F)F (racemic) [Lambda Cyhalothrin, lambda-cyhalothrin] was tested. Which pest or weed control at 0.00625 ppm ([1]; Lambda Cyhalothrin alone 0.00625 ppm AI) did it give?
**A.** 0%

**Q.** And the pest or weed control at 0.0125 ppm ([1]; Lambda Cyhalothrin alone 0.0125 ppm AI)?
**A.** 0%

**Q.** What about the pest or weed control at 0.025 ppm ([1]; Lambda Cyhalothrin alone 0.025 ppm AI) of the same compound?
**A.** 0%

**Q.** What about the pest or weed control at 0.05 ppm ([1]; Lambda Cyhalothrin alone 0.05 ppm AI) of the same compound?
**A.** 0%

**Q.** What about the pest or weed control at 0.1 ppm ([1]; Lambda Cyhalothrin alone 0.1 ppm AI) of the same compound?
**A.** 25%

**Q.** What about the pest or weed control at 0.2 ppm ([1]; Lambda Cyhalothrin alone 0.2 ppm AI) of the same compound?
**A.** 75%

**Q.** And the pest or weed control at 0.00625 ppm ([1]; single compound at 0.00625 ppm AI)?
**A.** 0%

**Q.** And the pest or weed control at 0.0125 ppm ([1]; single compound at 0.0125 ppm AI)?
**A.** 0%

**Q.** And the pest or weed control at 0.025 ppm ([1]; single compound at 0.025 ppm AI)?
**A.** 0%

**Q.** What about the pest or weed control at 0.05 ppm ([1]; single compound at 0.05 ppm AI) of the same compound?
**A.** 0%

**Q.** What about the pest or weed control at 0.1 ppm ([1]; single compound at 0.1 ppm AI) of the same compound?
**A.** 25%

**Q.** What about the pest or weed control at 0.2 ppm ([1]; single compound at 0.2 ppm AI) of the same compound?
**A.** 75%

**Q.** And the “AVERAGE DEAD IN % (EGGS)” value ([2]; 0.05 ppm AI)?
**A.** 0%

**Q.** And the “AVERAGE DEAD IN % (LARVAE)” value ([2]; 0.05 ppm AI)?
**A.** 33%

**Q.** What about the “AVERAGE DEAD IN % (EGGS)” value ([2]; 0.1 ppm AI) of the same compound?
**A.** 17%

**Q.** What about the “AVERAGE DEAD IN % (LARVAE)” value ([2]; 0.1 ppm AI) of the same compound?
**A.** 100%

**Q.** What about the “AVERAGE DEAD IN % (EGGS)” value ([2]; 0.2 ppm AI) of the same compound?
**A.** 50%

**Q.** And the “AVERAGE DEAD IN % (LARVAE)” value ([2]; 0.2 ppm AI)?
**A.** 100%

**Q.** And the “AVERAGE DEAD IN % AFTER 1 DAY” value ([3]; 3.125 ppm alone)?
**A.** 70%

**Q.** And the “AVERAGE DEAD IN % AFTER 1 DAY” value ([3]; 6.25 ppm alone)?
**A.** 90%

**Q.** And the “AVERAGE DEAD IN % AFTER 8 DAYS” value ([3]; 6.25 ppm alone)?
**A.** 85% and 90%

**Q.** What about the “AVERAGE DEAD IN % AFTER 1 DAY” value ([3]; 12.5 ppm alone) of the same compound?
**A.** 83%

**Q.** And the “AVERAGE DEAD IN % AFTER 8 DAYS” value ([3]; 12.5 ppm alone)?
**A.** 98% and 90%

**Q.** What about the “AVERAGE DEAD IN % AFTER 1 DAY” value ([3]; Lambda Cyhalothrin alone 3.125 ppm AI) of the same compound?
**A.** 25%

**Q.** And the “AVERAGE DEAD IN % AFTER 1 DAY” value ([3]; Lambda Cyhalothrin alone 6.25 ppm AI)?
**A.** 55%

**Q.** What about the “AVERAGE DEAD IN % AFTER 1 DAY” value ([3]; Lambda Cyhalothrin alone 12.5 ppm AI) of the same compound?
**A.** 88%

**Q.** What about the “AVERAGE DEAD IN % AFTER 5 DAYS” value ([4]; 0.05 PPM AI) of the same compound?
**A.** 10% and 20%

**Q.** And the “AVERAGE DEAD IN % AFTER 5 DAYS” value ([4]; 0.05 ppm AI)?
**A.** 20%

**Q.** And the “AVERAGE DEAD IN % AFTER 5 DAYS” value ([4]; 0.1 ppm AI)?
**A.** 37%

**Q.** And the “AVERAGE DEAD IN % AFTER 5 DAYS” value ([4]; 0.2 ppm AI)?
**A.** 57%

**Q.** Which results are given for CCOP(=S)(OCC)Oc1nc(Cl)c(Cl)cc1Cl [Chlorpyriphos, chlorpyrifos]?
**A.** pest or weed control at 25 ppm ([1]; single compound at 25 ppm AI): 45%; pest or weed control at 50 ppm ([1]; single compound at 50 ppm AI): 90%; pest or weed control at 100 ppm ([1]; single compound at 100 ppm AI): 100%; pest or weed control at 200 ppm ([1]; single compound at 200 ppm AI): 100%; pest or weed control at 400 ppm ([1]; single compound at 400 ppm AI): 100%; pest or weed control at 800 ppm ([1]; single compound at 800 ppm AI): 100%; activity on eggs ([2]; egg mortality, 7 days incubation): inactive; AVERAGE DEAD IN % (LARVAE) ([2]; 50 ppm AI): 0%; AVERAGE DEAD IN % (LARVAE) ([2]; 100 ppm AI): 0%; AVERAGE DEAD IN % (LARVAE) ([2]; 200 ppm AI): 30%; AVERAGE DEAD IN % AFTER 8 DAYS ([3]; 50 ppm alone): 0%; AVERAGE DEAD IN % AFTER 8 DAYS ([3]; 100 ppm alone): 20%; AVERAGE DEAD IN % AFTER 8 DAYS ([3]; 200 ppm alone): 63%; AVERAGE DEAD IN % AFTER 1 DAY ([3]; Chlorpyrifos alone 50 ppm AI): 0%; AVERAGE DEAD IN % AFTER 1 DAY ([3]; Chlorpyrifos alone 100 ppm AI): 60%; AVERAGE DEAD IN % AFTER 1 DAY ([3]; Chlorpyrifos alone 200 ppm AI): 88%; AVERAGE DEAD IN % AFTER 5 DAYS ([4]; 12.5 PPM AI): 10% and 7%; AVERAGE DEAD IN % AFTER 5 DAYS ([4]; 25 PPM AI): 17% and 10%; AVERAGE DEAD IN % AFTER 5 DAYS ([4]; 50 PPM AI): 30% and 20%
